Laboratory results published in patent publication US6066642A, “Dihydropyridine-, pyridine-, benzopyran-4-one- and triazoloquinazoline derivative, their preparation and their use as adenosine receptor antagonists” (priority 1998, dated 2000).
Where two headings read alike, the source gives them in different places. Values belong to the compound of their own block, whether it stands above or below them.

Key:
human A3 receptors = target: T1, human A3 receptors (Homo sapiens, UniProt P0DMS8); assay: radioligand binding, displacement of specific [125I]AB-MECA binding at human A3 receptors expressed in HEK-293 cells; settings: for inhibition at 100 µM: 10^-4 M
T1 construct: expressed in transfected cells; host or cells: HEK-293 cells (membranes)
T1 sequence (P0DMS8 1-318): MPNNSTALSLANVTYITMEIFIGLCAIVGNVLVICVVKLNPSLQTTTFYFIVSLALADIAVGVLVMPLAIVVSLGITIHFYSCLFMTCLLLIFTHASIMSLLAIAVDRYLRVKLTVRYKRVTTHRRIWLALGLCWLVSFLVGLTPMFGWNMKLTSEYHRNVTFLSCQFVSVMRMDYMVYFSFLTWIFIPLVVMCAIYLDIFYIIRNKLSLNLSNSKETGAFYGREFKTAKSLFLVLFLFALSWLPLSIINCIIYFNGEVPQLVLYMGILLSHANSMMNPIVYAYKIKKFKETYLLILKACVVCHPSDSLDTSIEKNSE
Procedure: A3 receptors expressed in HEK293 cells, in membranes, expressed as
binding displaced at 100 μM.

A2a receptors = target: T2, A2a receptors (Rattus norvegicus, UniProt P30543); assay: radioligand binding, displacement of specific [3H]CGS 21680 binding in rat striatal membranes; settings: for inhibition at 100 µM: 10^-4 M; for Ki: [3H]CGS 21680, rat striatal membranes
T2 construct: Displacement of specific [^3 H]; from tissue; host or cells: rat striatal membranes
Procedure: ^b Displacement of specific [^3 H]
or as a percentage of specific binding displaced at 100 μM.

A1 receptors = target: T3, A1 receptors (Rattus norvegicus, UniProt P25099); assay: biochemical; format: binding; settings: for inhibition at 100 µM: 10^-4 M; for Ki: [3H]PIA, rat brain membranes, read-out: Ki rA1
T3 sequence (P25099 1-326): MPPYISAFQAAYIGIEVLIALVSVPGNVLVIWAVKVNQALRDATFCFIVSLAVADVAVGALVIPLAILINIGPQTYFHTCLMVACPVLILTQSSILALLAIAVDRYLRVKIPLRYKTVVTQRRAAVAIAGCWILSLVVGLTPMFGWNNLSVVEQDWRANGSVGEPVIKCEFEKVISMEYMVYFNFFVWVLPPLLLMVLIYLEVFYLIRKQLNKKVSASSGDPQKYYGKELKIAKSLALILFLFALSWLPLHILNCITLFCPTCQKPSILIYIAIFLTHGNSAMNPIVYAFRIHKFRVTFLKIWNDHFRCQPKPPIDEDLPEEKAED
Procedure: ^a Displacement of specific [^3 H] PIA binding in rat brain
percentage of specific binding displaced at 100 μM.

[1] = Table 15, [125I]AB-MECA, HEK membranes, read-out: Ki hA3
[2] = Table 12, read-out: % inhibition rA2A
[3] = Table 12, read-out: % inhibition rA1
[4] = Table 12, [125I]AB-MECA, HEK membranes, read-out: Ki hA3
[5] = Table 7, read-out: % of specific binding displaced hA3
[6] = Table 11, read-out: % inhibition rA2A
[7] = Table 11, read-out: % inhibition rA1
[8] = Table 11, read-out: displacement of specific binding rA2A
[9] = Table 11, [125I]AB-MECA, HEK membranes, read-out: Ki hA3
[10] = Table 11, read-out: displacement of specific binding rA1
[11] = Table 16, [125I]AB-MECA, HEK membranes, read-out: Ki hA3

T2 sequence (P30543 whole entry): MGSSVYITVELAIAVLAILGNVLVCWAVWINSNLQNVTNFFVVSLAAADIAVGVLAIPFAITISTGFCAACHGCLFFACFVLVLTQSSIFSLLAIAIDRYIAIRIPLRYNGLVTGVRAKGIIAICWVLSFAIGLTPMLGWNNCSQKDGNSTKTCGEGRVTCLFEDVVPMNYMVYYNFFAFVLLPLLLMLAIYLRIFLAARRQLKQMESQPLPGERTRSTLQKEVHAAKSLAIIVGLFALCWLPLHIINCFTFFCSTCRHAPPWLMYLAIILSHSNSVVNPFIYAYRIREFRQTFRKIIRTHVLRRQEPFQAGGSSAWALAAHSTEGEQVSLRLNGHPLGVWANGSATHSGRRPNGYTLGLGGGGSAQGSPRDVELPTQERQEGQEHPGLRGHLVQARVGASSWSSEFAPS

Compound: 9-Chloro-2-(2-furyl)-5-(4'-iodobenzoyl)amino[1,2,4]triazolo [1,5-c]quinazoline [Compound 152]
Ki (human A3 receptors; [1]): 0.0238 ± 0.0052 µM

Compound: CCOC(=O)C1=C(C)NC(c2ccccc2)=C(C(=O)O)C1C#Cc1ccccc1 (racemic) [Compound 131, 3-Ethoxycarbonyl-2-methyl-4-phenylethynyl-6-phenyl-1,4(±)-dihydropyridine-5-carboxylic acid]
inhibition at 100 µM (A2a receptors; [2]): 16 ± 6%
inhibition at 10 µM (human A3 receptors; Table 12, 10^-5 M, read-out: displacement of specific binding hA3): < 10%

Compound: CCOCN1C(C)=C(C(=O)OCC)C(C#Cc2ccccc2)C(C(=O)OCC[Si](C)(C)C)=C1c1ccccc1 (racemic) [Compound 138, 1-Ethoxymethyl 3-ethyl 5-(2-trimethylsilyl)-ethyl 2-methyl-4-phenylethynyl-6-phenyl-1,4-(±)-dihydropyridine-3,5-dicarboxylate]
inhibition at 100 µM (A2a receptors; [2]): 19%
inhibition at 100 µM (A1 receptors; [3]): 13 ± 3%

Compound: CCOCN1C(C)=C(C(=O)OCC)C(C#Cc2ccccc2)C(C(=O)O)=C1c1ccccc1 (racemic) [Compound 139, 1-Ethoxymethyl-3-ethoxycarbonyl-2-methyl-4-phenylethynyl-6-phenyl-1,4-(±)-dihydropyridine-5-carboxylic acid]
inhibition at 100 µM (A2a receptors; [2]): 36 ± 7%
rA1/hA3 (human A3 receptors): > 1
Ki (human A3 receptors; [4]): > 100 µM

Compound: O=C1c2ccccc2O[C@H](c2ccccc2O)[C@H]1O (relative stereo) [Compound 14, reference compound]
inhibition at 100 µM (A2a receptors; Table 4, read-out: displacement of specific binding rA2a): < 10%
inhibition at 100 µM (human A3 receptors; Table 4, read-out: % of specific binding displaced hA3): 27 ± 3%
rA1/hA3 (human A3 receptors; Table 4, ratio of Ki): < 1

Compound: COc1cc(OC)c2c(=O)c(OC)c(-c3ccccc3)oc2c1 [Compound 2, 3,5,7-Trimethoxyflavone]
Ki (A2a receptors; Table 3, read-out: Ki rA2a): 6.45 ± 1.48 µM
Ki (A1 receptors; Table 3): 0.509 ± 0.049 µM

Compound: O=c1c(O)c(-c2ccc(O)cc2O)oc2cc(O)cc(O)c12 [Compound 5a, 2',3,4',5,7-pentahydroxyflavone, reference compound]
Ki (A2a receptors; Table 3, read-out: Ki rA2a): 17.3 µM
Ki (A1 receptors; Table 3): 13.8 µM

Ki (A2a receptors; Table 3, read-out: Ki rA2a): 26.8 µM
Ki (human A3 receptors; Table 3, [125I]AB-MECA, HEK-293 membranes, read-out: Ki hA3): 7.27 ± 1.88 µM
Compound: CCOc1ccc(-c2oc3cc(OCC)cc(OCC)c3c(=O)c2OCC)c(OCC)c1 [Compound 8, 2',3,4',5,7-Pentaethoxyflavone]

Compound: O=c1cc(-c2ccccc2)oc2ccccc12 [Compound 11a, flavone, reference compound]
Ki (A2a receptors; Table 3, read-out: Ki rA2a): 3.45 ± 1.16 µM
Ki (A1 receptors; Table 3): 3.28 ± 0.92 µM

Compound: O=C1CC(c2ccccc2O)Oc2ccccc21 (stereo not drawn) [Compound 13, reference compound]
Ki (A2a receptors; Table 4, read-out: Ki rA2a): 17.6 ± 2.1 µM
Ki (A1 receptors; Table 4): 2.64 ± 0.56 µM

Compound: COc1c2ccoc2cc2oc(C)cc(=O)c12 [Compound 17, 4-methoxy-7-methyl-5H-furo[3,2-g][1]-benzopyrano-5-one, reference compound]
Ki (A2a receptors; Table 5, read-out: Ki rA2a): 42.4 ± 11.9 µM
inhibition at 100 µM (A1 receptors; Table 5, read-out: % of specific binding displaced rA1): 36 ± 3%

Ki (human A3 receptors; Table 5, [125I]AB-MECA, HEK-293 membranes, read-out: Ki hA3): 3.95 µM
Compound: CCCOc1c2ccoc2cc2oc(/C=C/c3ccccc3)cc(=O)c12 [Compound 21, 4-propyloxy-7-trans-styryl-visnagin]

Compound: O=c1cc(-c2ccccc2)oc2cccc(O)c12 [Compound 25, reference compound]
Ki (A2a receptors; Table 6, read-out: K2 (rA2a)): 6.2 ± 1.24 µM
inhibition at 100 µM (human A3 receptors; Table 6, read-out: % inhibition hA3): 47 ± 12%

Compound: COc1cc(O)c2c(=O)c(O)c(-c3ccc(O)c(O)c3)oc2c1 [Compound 36, rhamnetin, reference compound]
Ki (human A3 receptors; Table 6, [125I]AB-MECA, HEK-293 membranes, read-out: K2 (hA3)): 1.38 ± 0.18 µM

Compound: O=c1c(-c2ccc(O)cc2)coc2cc(O)cc(O)c12 [Compound 40, genistein, reference compound]
inhibition at 100 µM (human A3 receptors; [5]): 20 ± 2%

Compound: COc1cc(O)c2c(c1)O[C@H](c1ccc(O)cc1)CC2=O [Compound 42, sakuranetin, reference compound]
Ki (human A3 receptors; Table 7, [125I]AB-MECA, HEK-293 membranes, read-out: Ki (hA3)): 3.4 ± 0.18 µM

Compound: COc1cc2c3c(oc(=O)c2cc1OC)CCCC3=O [Compound 45]
Ki (A2a receptors; Table 7, read-out: Ki (rA2A)): 29.9 ± 10.1 µM
inhibition at 100 µM (human A3 receptors; Table 7, read-out: displacement of specific binding hA3): < 10%

Compound: O=C1c2ccccc2-c2cc3c(cc21)OCO3 [Compound 49, 2,3-methylenedioxy-fluorene-9-one]
Ki (A2a receptors; Table 7, read-out: Ki (rA2A)): 84 ± 6.9 µM
inhibition at 100 µM (human A3 receptors; [5]): 52 ± 6%

Ki (A2a receptors; Table 9, read-out: Ki rA2A): 63.8 µM
Ki (A1 receptors; Table 9): 19.6 µM
Compound: COC(=O)C1=C(C)NC(C)=C(C(=O)OCCN(C)Cc2ccccc2)C1c1cccc([N+](=O)[O-])c1 (stereo not drawn) [Compound 63, reference compound]
greater affinity to A1 than A2a adenosine receptors (A1 receptors; selectivity in words): greater affinity to A1 adenosine receptors than A2a receptors

Ki (A2a receptors; Table 9, read-out: Ki rA2A): 4.77 ± 0.29 µM
Compound: CCOC(=O)C1=C(C)NC(c2ccccc2)=C(C(=O)OCC)C1/C=C/c1ccccc1 (stereo not drawn) [Compound 79]
greater affinity for A3 than A1 or A2a adenosine receptors (human A3 receptors; selectivity in words): greater affinity for A3 adenosine receptors than A1 or A2a adenosine receptors

Compound: CCOC(=O)C1=C(C)NC(c2ccccc2)=C(C(=O)OCc2ccccc2)C1/C=C/c1ccccc1 (stereo not drawn) [Compound 99]
inhibition at 100 µM (A2a receptors; [6]): 15%
inhibition at 100 µM (A1 receptors; [7]): 35 ± 3%

Compound: CCOC(=O)C1=C(C)NC(c2ccccc2)=C(C(=O)OCc2ccccc2)C1/C=C/c1ccc([N+](=O)[O-])cc1 (stereo not drawn) [Compound 100]
inhibition at 100 µM (A2a receptors; [8]): < 10%
inhibition at 100 µM (A1 receptors; [7]): 33%

Ki (human A3 receptors; [9]): < 0.1 µM
Compound: CCOC(=O)C1=C(C)NC(c2ccccc2)=C(C(=O)OCc2ccccc2)C1C#Cc1ccc([N+](=O)[O-])cc1 (stereo not drawn) [Compound 102]

Ki (human A3 receptors; [9]): < 0.1 µM
Compound: CCOC(=O)C1=C(C)NC(c2ccccc2)=C(C(=O)OCc2ccccc2)C1C#Cc1ccc(N)cc1 (stereo not drawn) [Compound 103]

Ki (human A3 receptors; [9]): < 0.1 µM
Compound: CCOC(=O)C1=C(C)NC(c2ccccc2)=C(C(=O)OCc2ccccc2)C1C#Cc1ccc(N)c(I)c1 (stereo not drawn) [Compound 104]

Compound: CCOC(=O)C1=C(c2ccccc2)NC(C)=C(C(=O)OCc2ccccc2)C1/C=C/c1ccccc1 (stereo not drawn) [Compound 105]
inhibition at 100 µM (A2a receptors; [6]): 16 ± 11%
inhibition at 100 µM (A1 receptors; [10]): < 10%

Compound: CCOC(=O)C1=C(c2ccccc2)NC(C)=C(C(=O)OCc2ccccc2)C1/C=C/c1ccc([N+](=O)[O-])cc1 (stereo not drawn) [Compound 106]
inhibition at 100 µM (A2a receptors; [8]): < 10%
inhibition at 100 µM (A1 receptors; [10]): < 10%

Compound: CCOC(=O)C1=C(c2ccccc2)NC(C)=C(C(=O)OCc2ccccc2)C1C#Cc1ccccc1 (stereo not drawn) [Compound 107]
inhibition at 100 µM (A2a receptors; [8]): < 10%
inhibition at 100 µM (A1 receptors; [7]): 24 ± 4%

Compound: C=CCOC(=O)C1=C(C)NC(c2ccccc2)=C(C(=O)OCC)C1/C=C/c1ccc([N+](=O)[O-])cc1 (stereo not drawn) [Compound 117]
inhibition at 100 µM (A2a receptors; [2]): 15%
inhibition at 100 µM (A1 receptors; Table 12, read-out: displacement of specific binding rA1): < 10%

Compound: CCOC(=O)C1=C(C)NC(c2ccccc2)=C(C(=O)OCC)C1/C=C/c1ccc([N+](=O)[O-])cc1 (stereo not drawn) [Compound 118]
inhibition at 100 µM (A2a receptors; [2]): 26%
inhibition at 100 µM (A1 receptors; [3]): 31%

Compound: CCOC(=O)C1=C(C)NC(c2ccccc2)=C(C(=O)OCc2cccc(I)c2)C1C#Cc1ccccc1 (stereo not drawn) [Compound 122e]
inhibition at 100 µM (A2a receptors; [2]): 19 ± 7%
inhibition at 100 µM (A1 receptors; [3]): 14%

Ki (human A3 receptors; [4]): 0.01 µM
Compound: CCOC(=O)C1=C(C)NC(c2ccccc2)=C(C(=O)OCc2ccc(C(=O)NCCN)cc2)C1C#Cc1ccccc1 (stereo not drawn) [Compound 123]

Compound: Nc1nc2ccc(Cl)cc2c2nc(-c3ccco3)nn12 [Compound 144, reference compound]
Ki (human A3 receptors; read-out: Ki hA3): 0.0138 ± 0.0024 µM

Compound: CC(C)(C)OC(=O)Nc1nc2ccc(Cl)cc2c2nc(-c3ccco3)nn12 [Compound 150, 5-[(tert.-Butoxycarbonyl)amino]-9-chloro-2-(2-furyl)[1,2,4]triazolo[1,5-c]quinazoline]
Ki (A2a receptors; Table 15, read-out: Ki rA2A): 0.092 ± 0.008 µM
Ki (A1 receptors; Table 15): 0.19 ± 0.016 µM

Ki (human A3 receptors; [1]): 0.054 ± 0.0131 µM
Compound: Nc1nc2ccc(Cl)cc2c2nc(-c3ccc(Br)o3)nn12 [Compound 157]

Ki (human A3 receptors; [11]): 0.004 µM
Compound: Nc1ccc(CC(=O)Nc2nc3ccc(Cl)cc3c3nc(-c4ccco4)nn23)cc1 [Compound 163]

Ki (human A3 receptors; [11]): 0.001 µM
Compound: Nc1ccc(CC(=O)Nc2nc3ccc(Cl)cc3c3nc(-c4ccco4)nn23)cc1I [Compound 164]

Compound: CCOC(=O)C1=C(c2ccccc2)NC(C)=C(C(=O)OCC2COC(C)(C)O2)C1C#Cc1ccccc1 (stereo not drawn) [Compound 209a]
inhibition at 100 µM (A2a receptors; Table 14, read-out: displacement of specific binding rA2A): < 10%
inhibition at 100 µM (A1 receptors; Table 14, read-out: % inhibition rA1): 32 ± 4%
